Values of other authors in patent publication US11384033B2, “Compositions with improved urease-inhibiting effect comprising (thio)phosphoric acid triamide and further compounds such as amines and colorants” (BASF SE, priority 2014, dated 2022).

Settings: de-ionized water at 25° C. and atmospheric pressure

For `CC(O)CO` (stereo not shown) [propane-1,2-diol], the pKa value is given as 14.9.
